Reference: article PMC5694347 (Clinical cancer research : an official journal of the …, 2015)
Marks after values point to notes of the source that are not given here.

Tested on: patients with relapsed and/or refractory lymphoma or MM
Experiment: Safety: adverse events graded by NCI CTCAE version 3.0
Conditions: for Peripheral neuropathies NEC, All grades / Peripheral neuropathies NEC, Grade ≥3: high-level term; for Patients with serious AEs (SAEs): eight patients

NS(=O)(=O)OC[C@@H]1C[C@@H](n2ccc3c(N[C@H]4CCc5ccccc54)ncnc32)C[C@@H]1O [pevonedistat]
1 n: Patients who discontinued due to occurrence of an AE (schedule B)
8 (47) n (%): Diarrhea, All grades (Schedule B, n=17) | Dizziness, All grades (Schedule B, n=17) | Pyrexia, All grades (Schedule B, n=17)
30%: Patients with serious AEs (SAEs) (schedule A)
27 (100) n (%): Any AE, All grades (Schedule A, n=27)
7 (26) n (%): Anemia, All grades (Schedule A, n=27) | Diarrhea, All grades (Schedule A, n=27) | Headache, All grades (Schedule A, n=27) | Vomiting, All grades (Schedule A, n=27)
4 (24) n (%): ALT increased, All grades (Schedule B, n=17) | Back pain, All grades (Schedule B, n=17) | Dyspnea, All grades (Schedule B, n=17) | Insomnia, All grades (Schedule B, n=17)
1 (6) n (%): ALT increased, Grade ≥3 (Schedule B, n=17) | Anemia, Grade ≥3 (Schedule B, n=17) | Blood alkaline phosphatase increased, All grades (Schedule B, n=17) | Dehydration, Grade ≥3 (Schedule B, n=17) | Dyspnea, Grade ≥3 (Schedule B, n=17) | Fatigue, Grade ≥3 (Schedule B, n=17) | Hyperbilirubinemia, Grade ≥3 (Schedule B, n=17) | Hypercalcemia, All grades (Schedule B, n=17) | Hypomagnesemia, All grades (Schedule B, n=17) | Hypophosphatemia, All grades (Schedule B, n=17) | Hypophosphatemia, Grade ≥3 (Schedule B, n=17) | Muscle spasms, Grade ≥3 (Schedule B, n=17) | Pain, Grade ≥3 (Schedule B, n=17) | Pyrexia, Grade ≥3 (Schedule B, n=17) | Upper respiratory tract infection, Grade ≥3 (Schedule B, n=17)
1 (4) ^a n (%): ALT increased, Grade ≥3 (Schedule A, n=27, 1 DLT) | Muscle spasms, Grade ≥3 (Schedule A, n=27, 1 DLT)
47%: Patients with serious AEs (SAEs) (schedule B)
16 (59) n (%): Any AE, Grade ≥3 (Schedule A, n=27)
6 (22) n (%): Blood alkaline phosphatase increased, All grades (Schedule A, n=27) | Decreased appetite, All grades (Schedule A, n=27) | Dizziness, All grades (Schedule A, n=27) | Hypomagnesemia, All grades (Schedule A, n=27) | Pain, All grades (Schedule A, n=27)
19%: Grade ≥3 anemia (schedule A)
12%: Grade ≥3 neutropenia (schedule B) | Grade ≥3 pneumonia (schedule B)
four: Patients with SAEs considered related to pevonedistat (schedule A)
17 (100) n (%): Any AE, All grades (Schedule B, n=17)
11%: Peripheral neuropathy rate (overall, both schedules)
2 (7) ^a n (%): AST increased, Grade ≥3 (Schedule A, n=27, 1 DLT)
9 (53) n (%): Headache, All grades (Schedule B, n=17)
2 n: Patients who discontinued due to occurrence of an AE (schedule A)
6 (35) n (%): Chills, All grades (Schedule B, n=17)
11 (41) n (%): Pyrexia, All grades (Schedule A, n=27)
2 (12) n (%): AST increased, All grades (Schedule B, n=17) | Neutropenia, All grades (Schedule B, n=17) | Neutropenia, Grade ≥3 (Schedule B, n=17) | Pneumonia, Grade ≥3 (Schedule B, n=17) | Peripheral neuropathies NEC, All grades (Schedule B, n=17)
no treatment-related deaths: Treatment-related deaths (both schedules)
12 (71) n (%): Any AE, Grade ≥3 (Schedule B, n=17) | Fatigue, All grades (Schedule B, n=17)
3 (18) n (%): Abdominal discomfort, All grades (Schedule B, n=17) | Anemia, All grades (Schedule B, n=17) | Asthenia, All grades (Schedule B, n=17) | Dehydration, All grades (Schedule B, n=17) | Dyspepsia, All grades (Schedule B, n=17) | Dyspnea exertional, All grades (Schedule B, n=17) | Peripheral edema, All grades (Schedule B, n=17) | Pneumonia, All grades (Schedule B, n=17) | Productive cough, All grades (Schedule B, n=17) | Sinus tachycardia, All grades (Schedule B, n=17) | Thrombocytopenia, All grades (Schedule B, n=17) | Upper respiratory tract infection, All grades (Schedule B, n=17) | Weight decreased, All grades (Schedule B, n=17)
10 (37) n (%): Constipation, All grades (Schedule A, n=27) | Myalgia, All grades (Schedule A, n=27)
1 (4) n (%): Abdominal discomfort, All grades (Schedule A, n=27) | Diarrhea, Grade ≥3 (Schedule A, n=27) | Dyspnea, Grade ≥3 (Schedule A, n=27) | Hyperbilirubinemia, All grades (Schedule A, n=27) | Hyperkalemia, Grade ≥3 (Schedule A, n=27) | Pain, Grade ≥3 (Schedule A, n=27) | Pneumonia, All grades (Schedule A, n=27) | Pneumonia, Grade ≥3 (Schedule A, n=27) | Sinus tachycardia, Grade ≥3 (Schedule A, n=27) | Thrombocytopenia, Grade ≥3 (Schedule A, n=27) | Weight decreased, All grades (Schedule A, n=27)
3 (11) n (%): Back pain, All grades (Schedule A, n=27) | Hypophosphatemia, Grade ≥3 (Schedule A, n=27) | Insomnia, All grades (Schedule A, n=27) | Peripheral edema, All grades (Schedule A, n=27) | Thrombocytopenia, All grades (Schedule A, n=27) | Upper respiratory tract infection, All grades (Schedule A, n=27) | Peripheral neuropathies NEC, All grades (Schedule A, n=27)
5 (29) n (%): Constipation, All grades (Schedule B, n=17) | Cough, All grades (Schedule B, n=17) | Hyperbilirubinemia, All grades (Schedule B, n=17) | Pain in extremity, All grades (Schedule B, n=17) | Pain, All grades (Schedule B, n=17) | Paresthesia, All grades (Schedule B, n=17)
0 n (%): Abdominal discomfort, Grade ≥3 (Schedule A, n=27) | Asthenia, Grade ≥3 (Schedule A, n=27) | Back pain, Grade ≥3 (Schedule A, n=27) | Blood alkaline phosphatase increased, Grade ≥3 (Schedule A, n=27) | Blood creatinine increased, Grade ≥3 (Schedule A, n=27) | Chills, Grade ≥3 (Schedule A, n=27) | Constipation, Grade ≥3 (Schedule A, n=27) | Cough, Grade ≥3 (Schedule A, n=27) | Decreased appetite, Grade ≥3 (Schedule A, n=27) | Dehydration, Grade ≥3 (Schedule A, n=27) | Dizziness, Grade ≥3 (Schedule A, n=27) | Dyspepsia, All grades (Schedule A, n=27) | Dyspepsia, Grade ≥3 (Schedule A, n=27) | Dyspnea exertional, All grades (Schedule A, n=27) | Dyspnea exertional, Grade ≥3 (Schedule A, n=27) | Headache, Grade ≥3 (Schedule A, n=27) | Hyperbilirubinemia, Grade ≥3 (Schedule A, n=27) | Hypomagnesemia, Grade ≥3 (Schedule A, n=27) | Insomnia, Grade ≥3 (Schedule A, n=27) | Myalgia, Grade ≥3 (Schedule A, n=27) | Nausea, Grade ≥3 (Schedule A, n=27) | Pain in extremity, Grade ≥3 (Schedule A, n=27) | Paresthesia, Grade ≥3 (Schedule A, n=27) | Peripheral edema, Grade ≥3 (Schedule A, n=27) | Productive cough, Grade ≥3 (Schedule A, n=27) | Pyrexia, Grade ≥3 (Schedule A, n=27) | Upper respiratory tract infection, Grade ≥3 (Schedule A, n=27) | Vision blurred, Grade ≥3 (Schedule A, n=27) | Vomiting, Grade ≥3 (Schedule A, n=27) | Weight decreased, Grade ≥3 (Schedule A, n=27) | Peripheral neuropathies NEC, Grade ≥3 (Schedule A, n=27) | AST increased, Grade ≥3 (Schedule B, n=17) | Abdominal discomfort, Grade ≥3 (Schedule B, n=17) | Asthenia, Grade ≥3 (Schedule B, n=17) | Back pain, Grade ≥3 (Schedule B, n=17) | Blood alkaline phosphatase increased, Grade ≥3 (Schedule B, n=17) | Blood creatinine increased, All grades (Schedule B, n=17) | Blood creatinine increased, Grade ≥3 (Schedule B, n=17) | Chills, Grade ≥3 (Schedule B, n=17) | Constipation, Grade ≥3 (Schedule B, n=17) | Cough, Grade ≥3 (Schedule B, n=17) | Decreased appetite, Grade ≥3 (Schedule B, n=17) | Diarrhea, Grade ≥3 (Schedule B, n=17) | Dizziness, Grade ≥3 (Schedule B, n=17) | Dyspepsia, Grade ≥3 (Schedule B, n=17) | Dyspnea exertional, Grade ≥3 (Schedule B, n=17) | Headache, Grade ≥3 (Schedule B, n=17) | Hypercalcemia, Grade ≥3 (Schedule B, n=17) | Hyperkalemia, All grades (Schedule B, n=17) | Hyperkalemia, Grade ≥3 (Schedule B, n=17) | Hypomagnesemia, Grade ≥3 (Schedule B, n=17) | Insomnia, Grade ≥3 (Schedule B, n=17) | Myalgia, Grade ≥3 (Schedule B, n=17) | Nausea, Grade ≥3 (Schedule B, n=17) | Pain in extremity, Grade ≥3 (Schedule B, n=17) | Paresthesia, Grade ≥3 (Schedule B, n=17) | Peripheral edema, Grade ≥3 (Schedule B, n=17) | Productive cough, Grade ≥3 (Schedule B, n=17) | Sinus tachycardia, Grade ≥3 (Schedule B, n=17) | Vision blurred, All grades (Schedule B, n=17) | Vision blurred, Grade ≥3 (Schedule B, n=17) | Vomiting, Grade ≥3 (Schedule B, n=17) | Weight decreased, Grade ≥3 (Schedule B, n=17) | Peripheral neuropathies NEC, Grade ≥3 (Schedule B, n=17)
13 (76) n (%): Nausea, All grades (Schedule B, n=17)
5 (19) n (%): Anemia, Grade ≥3 (Schedule A, n=27) | Chills, All grades (Schedule A, n=27) | Dyspnea, All grades (Schedule A, n=27) | Hypercalcemia, All grades (Schedule A, n=27) | Hypophosphatemia, All grades (Schedule A, n=27) | Vision blurred, All grades (Schedule A, n=27)
1 (6) ^a n (%): Thrombocytopenia, Grade ≥3 (Schedule B, n=17, 1 DLT)
12 (44) n (%): ALT increased, All grades (Schedule A, n=27) | AST increased, All grades (Schedule A, n=27) | Nausea, All grades (Schedule A, n=27)
4 (15) n (%): Blood creatinine increased, All grades (Schedule A, n=27) | Hyperkalemia, All grades (Schedule A, n=27) | Muscle spasms, All grades (Schedule A, n=27) | Pain in extremity, All grades (Schedule A, n=27)
2 (7) n (%): Asthenia, All grades (Schedule A, n=27) | Cough, All grades (Schedule A, n=27) | Dehydration, All grades (Schedule A, n=27) | Fatigue, Grade ≥3 (Schedule A, n=27) | Hypercalcemia, Grade ≥3 (Schedule A, n=27) | Neutropenia, All grades (Schedule A, n=27) | Neutropenia, Grade ≥3 (Schedule A, n=27) | Paresthesia, All grades (Schedule A, n=27) | Productive cough, All grades (Schedule A, n=27) | Sinus tachycardia, All grades (Schedule A, n=27)
18 (67) n (%): Fatigue, All grades (Schedule A, n=27)
10 (59) n (%): Decreased appetite, All grades (Schedule B, n=17) | Muscle spasms, All grades (Schedule B, n=17) | Myalgia, All grades (Schedule B, n=17) | Vomiting, All grades (Schedule B, n=17)
